Legend:
[1] = MDCK control cell permeability (not transfected with human P-gp); conditions: dog, pH 7.4
Description: (§1) To measure transport by P-gp, Madin-Darby canine kidney (MDCK) cells that had been transfected with the human P-gp (MDR1) gene were plated in a Transwell plate and cultured until polarized. MDCK cells that are not transfected with human P-gp were used as a control. Compounds were added to either the apical or the basolateral side of the cells, and transport across the membrane was measured.
(§2) Testing for permeability and MDR1 substrate assessment was done in MDCK cells transfected to overexpress human MDR1 gene that encodes efflux transporter protein (P-gp). […] Briefly, cells were maintained in Dulbecco’s modified Eagle medium (DMEM) with 10% fetal bovine serum and 1% penicillin/streptomycin in a humidified incubator at 37°C with 5% CO2. The study was performed by Absorption Systems (now Pharmaron; Exton, PA). The MDR1-MDCK and MDCK control cell lines were seeded into 12-well plates for 7 days. Integrity of monolayer tight junctions was monitored preincubation by transepithelial electrical resistance (TEER) measurement. […] The samples were withdrawn at t = 0 and 60 min from the receiver and donor compartments. Compound levels were measured by LC/MS–MS. Additionally, post-assay, cell monolayer integrity was checked with Lucifer Yellow permeability measurement. Transport assay low- and high-permeability control compounds were run in parallel for assay validation. Papp values were calculated considering compound concentrations across the monolayer and cell surface area. Efflux ratios were calculated based on Papp B > A over Papp A > B. The difference between the MDR1-MDCK and the MDCK cell efflux ratios was also calculated. […] Compounds were classified by Absorption Systems/Pharmaron as follows: […]

P-gp (MDR1) = experiment: MDR1-MDCK permeability / P-gp efflux assay; conditions: MDCK-MDR1, pH 7.4
Description: as §1, §2

human P-gp (MDR1) = experiment: MDR1-MDCK permeability / P-gp efflux assay
Description: as §1, §2

MDCK cells = experiment: MDCK control cell permeability (not transfected with human P-gp); conditions: dog, MDCK-MDR1, 60 min, pH 7.4
Description: as §1, §2

[2] = dog, MDCK-MDR1, 60 min, 1 μM, pH 7.4
[3] = dog, MDCK-MDR1, 60 min, 10 μM, pH 7.4

In the case of `C[C@]12C=CC(=O)C=C1CC[C@@H]1[C@@H]2C(=O)C[C@@]2(C)[C@H]1CC[C@]2(O)C(=O)CO` [Prednisone], the Papp A→B at 60 min, 1 μM [1] is reported as 2.83 ×10⁻⁶ cm/s, the Papp A→B at 60 min, 10 μM [1] is reported as 2.09 ×10⁻⁶ cm/s and the Papp B→A at 60 min, 1 μM [1] is reported as 3.42 ×10⁻⁶ cm/s. The Papp B→A at 60 min, 10 μM [1] was 2.86 ×10⁻⁶ cm/s, the Papp at 60 min (P-gp (MDR1)) was less than 3 ×10⁻⁶ cm/s and the “Apical to Basolateral MDR1-MDCK” value (human P-gp (MDR1); 10 μM) was 0.499 10 ^ −6 cm/s. For the same compound, the brain penetration classification (human P-gp (MDR1); 1 and 10 μM, from Papp (A-to-B) and efflux ratio) was “low”, the Papp A→B at 60 min, 1 μM (human P-gp (MDR1); dog, MDCK-MDR1, pH 7.4) was 0.263 ×10⁻⁶ cm/s and the Papp B→A at 60 min, 1 μM (human P-gp (MDR1); dog, MDCK-MDR1, pH 7.4) was 43.8 ×10⁻⁶ cm/s. For the same compound, the Papp B→A at 60 min, 10 μM (human P-gp (MDR1); dog, MDCK-MDR1, pH 7.4) was 51.8 ×10⁻⁶ cm/s.
In the case of `C[C@H]1O[C@@H](O[C@H]2[C@@H](O)C[C@H](O[C@H]3[C@@H](O)C[C@H](O[C@H]4CC[C@@]5(C)[C@H](CC[C@@H]6[C@@H]5C[C@@H](O)[C@]5(C)[C@@H](C7=CC(=O)OC7)CC[C@]65O)C4)O[C@@H]3C)O[C@@H]2C)C[C@H](O)[C@@H]1O` [digoxin], the Papp A→B at 60 min (P-gp (MDR1)) is reported as 0.0521 to 0.0558 ×10⁻⁶ cm/s, the Papp B→A at 60 min (P-gp (MDR1)) is reported as 19.6 to 20.7 ×10⁻⁶ cm/s and the efflux ratio at 60 min (P-gp (MDR1)) is reported as 352 to 398.
For `CC1=N[C@]2(C(=O)CO)[C@@H](C[C@H]3[C@@H]4CCC5=CC(=O)C=C[C@]5(C)[C@H]4[C@@H](O)C[C@@]32C)O1` [21-Des-deflazacort], the “Apical to Basolateral MDCK” value (MDCK cells; 1 μM) was 12.4 10 ^ −6 cm/s, the “Basolateral to Apical MDCK” value (MDCK cells; 1 μM) was 15.5 10 ^ −6 cm/s and the “Apical to Basolateral MDCK” value (MDCK cells; 10 μM) was 6.28 10 ^ −6 cm/s. For the same compound, the “Basolateral to Apical MDCK” value (MDCK cells; 10 μM) was 8.8 10 ^ −6 cm/s, the Papp values (human P-gp (MDR1); MDCK-MDR1) was less than 3 ×10⁻⁶ cm/s and the “Apical to Basolateral MDR1-MDCK” value (human P-gp (MDR1); [2]) was 1.08 10 ^ −6 cm/s. The “Basolateral to Apical MDR1-MDCK” value (human P-gp (MDR1); [2]) was 72.8 10 ^ −6 cm/s, the “Apical to Basolateral MDR1-MDCK” value (human P-gp (MDR1); [3]) was 1.11 10 ^ −6 cm/s and the “Basolateral to Apical MDR1-MDCK” value (human P-gp (MDR1); [3]) was 73.6 10 ^ −6 cm/s.
For `CC(C)NCC(O)COc1cccc2ccccc12` (centres unmarked) [propranolol], the Papp at 60 min (P-gp (MDR1)) was 19.7 to 21.4 ×10⁻⁶ cm/s.

Source: paper PMC10800023 (Human Molecular Genetics, 2023)
